Patent publication US8252832B2, “Kinesin inhibitors as cancer therapeutics” (Novartis AG, priority 2007, dated 2012)
Where two headings read alike, the source gives them in different places.

How the values were obtained:
Assay type in all cases: cell-based
[1] = system: NCI60 panel of cell lines; assay: CellTiter-Glo, NCI60 panel, mean of panel
Text: Identification of tumor types that are the most sensitive to the KSP inhibitors of the present invention can be accomplished using an unbiased approach that uses several cell-based assays. The assays chosen were as follows: • CellTiter-Glo®. This is an assay designed to measure ATP concentration in a cell culture, and can be correlated to cell number. Briefly CellTiter-Glo® (Promega Corporation) is a homogeneous method using the single CellTiter-Glo® reagent to detect ATP wherein ATP in the assay drives the activity of a thermostable luciferase to create a luminescent signal which can then be measured and correlated with the number of viable cells. Briefly, for adherent cells, 1,000 to 5,000 cells/well were plated in 96-well plates (100 μl/well) and let to adhere for 24 hours before being treated with drug. For non-adherent cells, 1,000 to 10,000 cells/well were plated in 96-well plates (100 μl/well) and immediately treated with drug. Drug dilutions were prepared in DMSO at 1000 times the final concentration. These dilutions were then diluted 1/100 in growth media before being added to the cells (11 μl/well) to achieve the desired final concentration. […] The enzymatic reaction is coupled to a chemical reaction that uses a tetrazolium salt to form a formazan that is red and can be detected by its absorbance at 490 nm. […]

Hel92.1.7 = assay: CellTiter-Glo proliferation, 72 hours; settings: Homo sapiens, HEL 92.1.7; Leukemia, Hel92.1.7, 72 hours
Text: (§1) Cell lines used were as follows: HCT-116 (National Cancer Institute's DCTF Tumor Repository, catalog #NCI-502568, Rockville, Md.), HCT-15 (National Cancer Institute's DCTF Tumor Repository, catalog#NCI-502711, Rockville, Md. available from American Type Tissue Collection, catalog #CLL-225), KB-3-1 (available from DSMZ, Deutsche Sammlung von Mikroorganismen und Zellkulturen GmbH (German Collection of Microorganisms and Cell Cultures—catalog number ACC 158), KB-V1 (available from DSMZ—catalog number ACC 149), AGS (available from American Type Culture Collection, Manassas Va., catalog number CRL-1739™), N87 (available from American Type Culture Collection, Manassas Va., catalog number CRL-5822), Hel92.1.7 (available from American Type Culture Collection, Manassas Va., catalog number TIB 180), K562 (available from American Type Culture Collection, Manassas Va., catalog number CRL-243™), MV4; 11 (American Tissue Culture Collection, Manassas Va., catalog number CRL-9591) and U937 (available from American Type Culture Collection, Manassas Va., catalog number CRL-1593.2).
(§2) Cells were plated in 96-well plates at densities of about 500 cells per well of a 96-well plate and allowed to grow for 24 hours. The cells were then treated with various concentrations of compounds for 72 hours. Then, 100 μl of CellTiter-Glo® reagent was added (Promega Corporation). CellTiter-Glo® is used in a homogeneous method of determining the number of viable cells using the single CellTiter-Glo® reagent to detect ATP (U.S. Pat. Nos. 6,602,677 and 7,241,584) (see Promega product catalog #G7570). Following the addition of the CellTiter-Glo® reagent, the cells were incubated in the dark for 30 minutes. The amount of luminescence was determined for each well using a Wallac Trilux plate reader, which correlates with the number of cells per well. The number of viable cells in the wells that receive only DMSO (0.5%) served as an indication of 0% inhibition, while wells without cells served as 100% inhibition of cell growth. […] This broad activity is consistent with a compound that is a mitotic inhibitor.

KBV1 = assay: CellTiter-Glo proliferation, 72 hours; settings: Homo sapiens, KB-V1; Epidermoid, KBV1, 72 hours
Text: as §1, §2

K562 = assay: CellTiter-Glo proliferation, 72 hours; settings: Homo sapiens; Leukemia, K562, 72 hours
Text: as §1, §2

KB3.1 = assay: CellTiter-Glo proliferation, 72 hours; settings: Homo sapiens, KB 3-1; Epidermoid, KB3.1, 72 hours
Text: as §1, §2

N87 = assay: CellTiter-Glo proliferation, 72 hours; settings: Gastric, N87, 72 hours
Text: as §1, §2

MV4-11 = assay: CellTiter-Glo proliferation, 72 hours; settings: Homo sapiens; Leukemia, MV4-11, 72 hours
Text: as §1, §2

AGS = assay: CellTiter-Glo proliferation, 72 hours; settings: Homo sapiens, Gastric
Text: as §1, §2

U937 = assay: CellTiter-Glo proliferation, 72 hours; settings: Homo sapiens, U-937; Leukemia, U937, 72 hours
Text: as §1, §2

CC(C)(C)[C@H](c1nc(-c2cc(F)ccc2F)cn1Cc1ccccc1)N(CC[C@H](N)CF)C(=O)CO [Compound IIa]
GI50 ([1]; GI50 in nM, read-out: Log(GI50), arithmetic mean of panel (converted)): 2.14 nM
GI50 ([1]; read-out: GI50, geometric mean of panel): 2.14 nM
GI50 (Hel92.1.7): 0.5 nM
GI50 (KBV1): 6.5 nM
GI50 (K562): 0.1 nM
GI50 (KB3.1): 0.6 nM
GI50 (N87): 1 nM
GI50 (MV4-11): 0.2 nM
GI50 (AGS): 0.2 nM
GI50 (U937): 0.1 nM
